From US20240238362A1, “ANTI-OBESITY PEPTIDES AND USES THEREOF” (Arizona Board of Regents on Behalf of the University of …, priority 2020, published 2024)
“Also recorded” adds a separate entry of the source.

What was measured:
3T3-LI mature adipocytes = assay: Oil Red O staining of lipid accumulation in adipocytes; assay type: cell-based, murine; conditions: for number and size / morphology of lipid droplets vs. non-treated control: Oil Red O micrographs, peptides at 100 μM, Day 21, three times per week for three weeks; for reduction of lipid accumulation / lipid contents (in words): murine-based in vitro systems, mature adipocytes; for decrease in degree of lipid accumulation: quantitative Oil Red O analysis, Day 21
Description: FIG. 2A-G: Representative photomicrographs showing Oil Red O-stained mature adipocytes treated with peptides at 100 μM (Day 21). H: Quantitative analysis of the lipids accumulated in the adipocytes (Day 21). Control absorbance: 0.526 (Red line). I: Relative cell counts on day 21.
The effects of the minimal short peptides in blocking lipid accumulation in adipocytes were compared with their parent full-length peptide. After generating five different 3 amino acid fragments (KGG, GGR, GRA, RAK, and AKD) from the original ATS peptide (KGGRAKD (SEQ ID NO:1)), each peptide was administered to 3T3-LI pre-adipocytes in five varying concentrations. Peptides were treated to the adipocytes three times per week for three weeks. Oil Red O staining was utilized to assess the lipid contents in mature adipocytes in culture. The morphological characteristics of 3T3-LI mature adipocytes were observed by microscopy. […] Furthermore, the lipids were quantitatively analyzed. […] At the end point, the cell number was almost the same across the treatment groups, meaning that the reduction in lipid accumulation is not a consequence of toxicity of the peptides (FIG. 2I).
The number of viable cells is counted prior to Oil Red O staining using Cell Counting Kit 8 (Dojindo). This cell viability study allows one to determine potential toxicities of the peptides and compensate for cell number variation-causing artifacts. Oil Red O is dissolved in isopropanol at […] to create a working solution. 12 ml of Oil Red O working solution is mixed with 8 ml dH2O and incubated for 10 minutes. This solution is then filtered using a 0.2 μm syringe filter. Adipocytes seeded on 96-well plates are washed with PBS twice. 10% formaldehyde is added for initial fixation and the plates are incubated for at least 30 minutes. The formaldehyde is removed and the cells are once again washed twice, this time with dH2O. 60% isopropanol is added to each well. The plates are incubated for 5 minutes. The isopropanol is removed from the wells and replaced with Oil Red O working solution. The plates are incubated for an additional 10 minutes. The Oil Red O solution is removed and washed four times with dH2O. Lastly, digital micrographs of the lipid droplets in adipocytes are taken using a light microscope. After the staining protocol, all plates are washed three times with 60% isopropanol. Each time, 5 minutes of gentle rocking was used. The Oil Red O is extracted with 100% isopropanol with gentle rocking for 5 minutes. 200 μl isopropanol per well is used as a background to measure absorbance at 492 nm using a BioTek microplate reader.

[1] = tested on: DIO mice, obesity progression model (OPM); assay: Body weight in pre-obese mice fed high fat diet (obesity progression model, OPM); assay type: in vivo; conditions: for anti-obesity efficacy (body weight): oral administration
Description: (§1) FIG. 3A-H: IP Preobese Body Weight. Relative body weight measurements for IP injected pre-obese mice. I-J: Body weight change. Changes in body weight compared using HFD control group as baseline value A1-F1: GTT. Blood glucose levels of peptide groups at endpoint, post-glucose injection (after 16 h fasting). A2-F2: ITT. Blood glucose levels of peptide groups at endpoint, post-insulin injection (after 6 h fasting).
as §1, with “4A-F: SC Pre-obese” for “3A-H: IP Preobese”, “SC” for “IP”, “G-H:” for “I-J:”, “value.” for “value”
(§2) FIG. 7A-F: Oral/Feeding Pre-obese Body Weight. Relative body weight measurements for orally administered pre-obese mice. A1-F1: GTT. Blood glucose levels at endpoint, post-glucose injection (after 16 h fasting). A2-F2: ITT. Blood glucose levels at endpoint, post-insulin injection (after 6 h fasting).
Prior to oral administration, peptides were administered to DIO mice via intraperitoneal (IP) and subcutaneous (SC) injections. This study was divided into two phases:
(§3) In the first phase, peptides were tested on pre-obese mice that were being fed high fat diet (HFD) to induce obesity (obesity progression model, OPM). In the second phase, these peptides were given to mice that had already developed obesity (obesity model, OM). […] As the activity of these three peptides varies depending on the injection route and the disease status, all three peptides, GGR, RAK, and AKD, were tested by oral administration.
Prior to oral administration, GGR, RAK, AKD, full-length ATS, and scrambled RKG peptides were administered to OPM mice via IP and SC injections to further screen an ideal peptide composition. PBS was included as a vehicle group. GGR, RAK, and AKD peptides were discovered to impede body weight gain in OPM mice. GGR and RAK were effective when given IP injections and AKD was effective by SC injections (FIGS. 3, 4).

[2] = tested on: DIO mice, obesity model (OM); assay: Body weight in mice that had already developed obesity (obesity model, OM); assay type: in vivo; conditions: OM (post-obese) mice
Description: as §1, with “5A-F:” for “3A-H:”, “Post-obese” for “Preobese”, “post-obese” for “pre-obese”, “G-H:” for “I-J:”, “value.” for “value”
as §1, with “6A-F: SC Post-obese” for “3A-H: IP Preobese”, “SC” for “IP”, “post-obese” for “pre-obese”, “G-H:” for “I-J:”, “value. A1-D1,F1:” for “value A1-F1:”, “A2-D2,F2:” for “A2-F2:”
as §2, with “8A-F:” for “7A-F:”, “Post-obese” for “Pre-obese”, “post-obese” for “pre-obese”
as §3
The second phase signified the post-obesity stage, where the same methods from phase 1 were used on OM mice.

[3] = tested on: epididymal fat tissues of DIO mice; assay: Histological analysis of fat pads (adipocyte number and size); assay type: in vivo
Description: FIG. 9. Histological analysis fat pads. An automated system detected and counted adipocytes (yellow line). Adipocyte number and size: average of 3 hpf images from 2 mice (total 6 images/group).
GGR, RAK, and AKD peptides were tested in OPM and OM mice by oral administration. […] In obesity progression, adipocytes increase in both number and size due to escalating lipid accumulation (Parlee, S. D., et al., Methods Enzymol 537, 93-122, (2014)). Using the methods described above, abdominal fat pads of GGR, RAK, AKD, or PBS-treated DIO mice were histologically analyzed. Epididymal fat tissues were harvested from two mice per experimental group. All samples were fixed in 4% paraformaldehyde, H&E-stained, and imaged. At a 10× magnification, adipocyte cell counting was performed on the digital slide images using an automated adipocyte counting macro with the ImageJ software. A default thresholding method was used and [cell] sizing boundaries of 40-40,000 were set. Limitations of the segmentation tool led to some erroneous selections or regions of interest (ROI), which were manually corrected by adding or erasing lines. The number of cells per representative field were then determined using the ROI manager in ImageJ. Two or three high power fields (hpf) per tissue and two tissue samples per group were analyzed to reduce variability. Average cell count for each group was calculated accordingly. Areas of all adipocytes of interest were measured using the ROI measurement tool (ImageJ) and average area per cell was calculated accordingly.
The primary function of adipocytes is to store energy in the form of lipids. The volume of lipid stored in an adipocyte cell increases as the third power of the diameter. Because mature adipocytes are composed of large lipid droplets that are surrounded by very thin cytoplasmic layers, the increase in volume of an adipocyte cell likely indicates increased lipid storage. Thus, smaller adipocyte size/area translates to reduced lipid accumulation.

prohibitin = target: T1, prohibitin (Mus musculus, UniProt P67778); assay: ATS/prohibitin binding by ATS magnetic bead immunoprecipitation and western blot; conditions: fractionated proteins from adipocytes incubated with ATS magnetic beads, western blot
T1 construct: Fractionated proteins isolated from adipocytes were incubated with the ATS magnetic beads; endogenous in cells; probably 3T3-L1
T1 sequence (P67778 2-272 limits assumed): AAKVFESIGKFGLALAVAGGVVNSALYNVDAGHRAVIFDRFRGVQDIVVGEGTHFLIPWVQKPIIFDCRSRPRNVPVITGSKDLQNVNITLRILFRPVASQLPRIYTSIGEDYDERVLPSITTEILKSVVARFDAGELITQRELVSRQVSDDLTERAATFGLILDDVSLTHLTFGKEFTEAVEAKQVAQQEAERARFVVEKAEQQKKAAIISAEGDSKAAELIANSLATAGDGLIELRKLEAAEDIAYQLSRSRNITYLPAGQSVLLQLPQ
From the text: FIG. 1A: ATS/prohibitin binding determined by immunoprecipitation and western blot. FIG. 1B: Location and degree of prohibitin expression in pre- or mature adipocytes. PM, plasma membrane; Cyt, Cytoplasm. C: Confocal micrographs showing the location of prohibitin in mature- or pre-adipocytes.
It was confirmed that prohibitin shifts its location to the cell membrane as adipogenesis progresses and ATS binds to prohibition. The ATS/prohibitin binding was verified in pre- or mature adipocytes (Won, Y. W. et al. Nat Mater 13, 1157-1164, (2014)). Fractionated proteins isolated from adipocytes were incubated with the ATS magnetic beads and the protein captured by ATS was identified by western blotting. […] Prohibitin is observed in several intracellular locations at varying expression levels depending on the degree of adipogenesis (Wang, P. et al. Cell Mol Life Sci 61, 2405-2417, (2004); Patel, N. et al. Proceedings of the National Academy of Sciences of the United States of America 107, 2503-2508, (2010)). The degree and location of prohibitin expression in pre- or mature adipocytes was determined. […] Confocal microscopy also verified the prohibitin expression on the cell membrane of mature adipocytes (FIG. 1C). High-level prohibitin expression on the cell membrane of mature adipocytes is important to the ATS/prohibitin interaction.

Substance | number and size / morphology of lipid droplets vs. non-treated control (3T3-LI mature adipocytes) | reduction of lipid accumulation / lipid contents (in words) (3T3-LI mature adipocytes) | decrease in degree of lipid accumulation (3T3-LI mature adipocytes) | prevention of body weight gain ([1]; IP injections) | prevention of body weight gain ([2]; IP injections) | prevention of body weight gain ([2]; SC injections) | further results
RAK | smaller than those in the non-treated control | able to reduce lipid contents in mature Adipocytes; also recorded: effective in reducing lipid accumulation | approximately 20% | positive effects on prevention of body weight gain; also recorded: effective | positive effects on prevention of body weight gain | effective | anti-obesity efficacy (body weight) [1]: efficacious over GGR; also recorded: has anti-obesity efficacy in both models; anti-obesity efficacy (body weight) ([2]; oral administration): has anti-obesity efficacy in both models; activity by histological analysis of the fat pads ([3]; DIO mice): more active than GGR; also recorded: highest efficacy; average cell count per field ([3]; H&E-stained epididymal fat, 10× magnification, among GGR, RAK, AKD, PBS groups): highest average cell count per field; average adipocyte area per cell ([3]; H&E-stained epididymal fat, among GGR, RAK, AKD, PBS groups): lowest average adipocyte area per cell
GGR | smaller than those in the non-treated control | able to reduce lipid contents in mature Adipocytes; also recorded: effective in reducing lipid accumulation | approximately 20% | positive effects on prevention of body weight gain; also recorded: effective | positive effects on prevention of body weight gain | effective | –
RKG [reference compound] | – | – | – | did not show meaningful efficacy over the vehicle group; also recorded: no anti-obese effects; also recorded: no anti-obesity effects | did not show meaningful efficacy over the vehicle group; also recorded: no anti-obesity effects | no anti-obesity effects | prevention of body weight gain ([1]; SC injections): no anti-obese effects; also recorded: no anti-obesity effects
GRA | moderate differences in the morphology of lipid droplets | – | – | – | – | – | –
KGGRAKD (SEQ ID NO:1) [ATS, parent full-length peptide, reference compound] | smaller than those in the non-treated control | – | – | – | – | – | ATS/prohibitin binding (prohibitin): specifically binds to prohibitin
AKD | smaller than those in the non-treated control | able to reduce lipid contents in mature Adipocytes; also recorded: effective in reducing lipid accumulation | approximately 20% | – | – | – | prevention of body weight gain ([1]; SC injections): best working peptide; also recorded: effective; anti-obesity efficacy (body weight) [1]: efficacious over GGR
KGG | moderate differences in the morphology of lipid droplets | – | – | – | – | – | –
